Source: BindingDB's records for doi:10.7270/Q2B856KG (Vanderbilt Screening Center For Gpcrs, Ion Channels and …, 2010)

Each molecule was assayed against Voltage-dependent T-type calcium channel subunit alpha-1H (Homo sapiens, UniProt O95180) (assay: PubChem AID 489005).
Sequence of Voltage-dependent T-type calcium channel subunit alpha-1H (O95180 whole entry): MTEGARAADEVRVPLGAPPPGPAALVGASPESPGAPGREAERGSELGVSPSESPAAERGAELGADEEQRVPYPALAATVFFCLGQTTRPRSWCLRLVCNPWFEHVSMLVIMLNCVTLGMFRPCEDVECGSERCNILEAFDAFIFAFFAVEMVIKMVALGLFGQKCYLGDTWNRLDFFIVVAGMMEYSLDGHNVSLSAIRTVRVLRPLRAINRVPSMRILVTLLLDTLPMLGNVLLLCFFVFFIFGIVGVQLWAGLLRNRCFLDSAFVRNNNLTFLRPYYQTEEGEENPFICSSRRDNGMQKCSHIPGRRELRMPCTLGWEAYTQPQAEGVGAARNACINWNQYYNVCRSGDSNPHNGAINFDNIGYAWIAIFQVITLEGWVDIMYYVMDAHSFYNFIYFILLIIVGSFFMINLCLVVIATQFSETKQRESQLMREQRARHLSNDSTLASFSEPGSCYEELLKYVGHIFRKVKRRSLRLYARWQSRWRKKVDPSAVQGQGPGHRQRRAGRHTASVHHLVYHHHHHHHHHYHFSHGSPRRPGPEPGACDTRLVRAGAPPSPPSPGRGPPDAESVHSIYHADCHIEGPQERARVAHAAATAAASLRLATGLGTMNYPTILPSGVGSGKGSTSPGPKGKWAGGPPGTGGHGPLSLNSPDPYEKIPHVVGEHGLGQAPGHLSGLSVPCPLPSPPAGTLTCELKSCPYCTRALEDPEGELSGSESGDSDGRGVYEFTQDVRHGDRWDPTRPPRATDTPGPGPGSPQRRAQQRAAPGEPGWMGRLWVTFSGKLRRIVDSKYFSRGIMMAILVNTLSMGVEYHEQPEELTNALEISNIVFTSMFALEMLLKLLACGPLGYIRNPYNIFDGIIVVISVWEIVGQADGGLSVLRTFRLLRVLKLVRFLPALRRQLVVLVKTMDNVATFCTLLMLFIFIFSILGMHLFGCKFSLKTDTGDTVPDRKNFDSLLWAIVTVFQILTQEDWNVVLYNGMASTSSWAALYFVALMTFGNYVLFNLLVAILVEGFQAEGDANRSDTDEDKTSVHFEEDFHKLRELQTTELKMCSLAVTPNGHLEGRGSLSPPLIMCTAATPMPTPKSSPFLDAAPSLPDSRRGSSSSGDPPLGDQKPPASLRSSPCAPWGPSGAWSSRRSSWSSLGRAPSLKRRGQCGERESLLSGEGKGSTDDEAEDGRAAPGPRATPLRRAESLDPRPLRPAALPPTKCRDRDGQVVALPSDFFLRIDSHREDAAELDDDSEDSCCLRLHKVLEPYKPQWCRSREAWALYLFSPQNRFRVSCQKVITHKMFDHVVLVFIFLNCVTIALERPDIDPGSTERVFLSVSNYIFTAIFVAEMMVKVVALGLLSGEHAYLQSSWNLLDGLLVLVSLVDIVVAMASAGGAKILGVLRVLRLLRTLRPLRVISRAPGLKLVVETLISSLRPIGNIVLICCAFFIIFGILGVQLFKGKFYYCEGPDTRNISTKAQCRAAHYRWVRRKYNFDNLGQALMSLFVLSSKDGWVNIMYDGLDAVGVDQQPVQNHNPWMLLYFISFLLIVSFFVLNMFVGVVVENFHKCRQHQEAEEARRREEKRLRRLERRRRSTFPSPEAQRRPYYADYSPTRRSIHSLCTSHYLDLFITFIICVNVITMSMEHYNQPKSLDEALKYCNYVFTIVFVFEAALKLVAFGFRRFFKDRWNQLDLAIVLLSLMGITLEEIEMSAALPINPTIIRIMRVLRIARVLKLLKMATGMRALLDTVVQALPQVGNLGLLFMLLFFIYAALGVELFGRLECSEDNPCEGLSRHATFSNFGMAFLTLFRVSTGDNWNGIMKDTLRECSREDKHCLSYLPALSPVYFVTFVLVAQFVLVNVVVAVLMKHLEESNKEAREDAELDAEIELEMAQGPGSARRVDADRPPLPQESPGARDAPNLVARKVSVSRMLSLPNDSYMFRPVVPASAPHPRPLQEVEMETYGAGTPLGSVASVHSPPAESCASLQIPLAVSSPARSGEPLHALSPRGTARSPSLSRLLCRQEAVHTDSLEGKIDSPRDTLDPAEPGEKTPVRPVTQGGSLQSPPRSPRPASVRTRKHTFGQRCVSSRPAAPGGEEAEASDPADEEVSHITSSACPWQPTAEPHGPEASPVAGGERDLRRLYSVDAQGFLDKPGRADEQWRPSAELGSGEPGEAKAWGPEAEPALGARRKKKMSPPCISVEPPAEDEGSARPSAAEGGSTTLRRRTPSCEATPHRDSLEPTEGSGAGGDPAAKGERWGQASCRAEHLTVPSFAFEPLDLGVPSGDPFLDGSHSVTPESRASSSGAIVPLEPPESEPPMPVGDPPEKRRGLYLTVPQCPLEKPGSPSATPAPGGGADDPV

Row | Structure (SMILES) | EC50 [µM]
1 | COc1cccc(N2CCN(c3cc(O)n(-c4ccc(Cl)c(Cl)c4)c3O)CC2)c1 [1-(3,4-dichlorophenyl)-3-[4-(3-methoxyphenyl)-1-piperazinyl]pyrrolidine-2,5-dione] | 6.84
2 | CCCCCCC1=Cc2c/c(=C3/NN=C(c4ccccc4)O3)c(=O)oc2=CC1=O [MLS000068623] | 3
3 | COc1ccc(C(C(=O)C(O)c2c[nH]c3ccccc23)N2CCN(c3ccccc3)CC2)cc1 (stereo unspecified) [MLS000053208] | 8.16
4 | CC1CCN(S(=O)(=O)c2ccc(N=NC(C#N)C#N)cc2)CC1 [SMR000162322] | 1.52
5 | CC(CC(=O)c1ccncc1)=Nc1ccccc1O | 3.26
6 | Oc1cc(SCCc2nc3ccccc3[nH]2)c(O)n1-c1ccc(Cl)cc1 [SMR000199589] | 613
7 | O=NC(c1ccc(Cl)cc1Cl)c1ncc(C(F)(F)F)cc1Cl (stereo unspecified) [MLS000540015] | 2.11
8 | CC(C)CC(C(=O)C(C#N)c1nc2ccccc2[nH]1)N1C(=O)c2ccccc2C1=O (stereo unspecified) [MLS000109709] | 14.8
9 | O=NC1c2cc(S(=O)(=O)N3CCCCC3)ccc2-c2ccc(S(=O)(=O)N3CCCCC3)cc21 [2,7-Bis-(piperidine-1-sulfonyl)-fluoren-9-one oxime] | 12.3
10 | Cc1ccc(-c2csc(NC(=O)c3cccc(-n4c(O)ccc4O)c3)n2)o1 [SMR000018545] | 3.78
11 | CCN(CC)S(=O)(=O)c1ccc2c(c1)C(N=O)c1cc(S(=O)(=O)N(CC)CC)ccc1-2 [N2,N2,N7,N7-tetraethyl-9-hydroxyimino-fluorene-2,7-disulfonamide] | 1.6
